This is an account of results in ChEMBL document CHEMBL6083217, “Identification of isoquinolinone DHODH inhibitor isosteres” (Bioorg Med Chem Lett, 2024).

Each structure is given as a SMILES string. Converted amounts (≈) assume the structure as drawn.

For data set [1], the system named is MOLM-13. Description: cells. The settings on record: Homo sapiens, MOLM-13, 72 h.
Description: Antiproliferative activity against human MOLM-13 cells assessed as inhibition of cell viability incubated for 72 hrs by Cell Titer Glo assay
Data set [2] is described as follows: Metabolic stability in human liver microsomes assessed as half life. Type of data set: ADME, Microsome. (In general: Liver microsomes are a subcellular fraction often used to study metabolism.)
Data set [3] in a line: Metabolic stability in mouse liver microsomes assessed as half life. It counts as ADME, Microsome.
Data set [4] in a line: Solubility of compound at pH 7. Type of data set: physicochemical. The settings on record: buffer.
Data set [5] is described as follows: Tmax in C57BL mouse at 10 mg/kg, po or 2 mg/kg, iv. Type of data set: ADME, organism-based. As to conditions: in vivo.
A short description of data set [6]: Oral bioavailability in C57BL mouse at 10 mg/kg. It counts as ADME, organism-based. The settings on record: in vivo.
The nature of data set [7]: Solubility of compound in SGF at pH 1. It counts as physicochemical.
Data set [8] in a line: Volume of distribution at steady state in C57BL mouse at 10 mg/kg, po or 2 mg/kg, iv. Type of data set: ADME, organism-based. As to conditions: in vivo.
A short description of data set [9]: Cmax in C57BL mouse at 10 mg/kg, po or 2 mg/kg, iv. Type of data set: ADME, organism-based. The settings on record: in vivo.
A short description of data set [10]: AUC (0 to infinity) in C57BL mouse at 10 mg/kg, po or 2 mg/kg, iv. Type of data set: ADME, organism-based. The settings on record: in vivo.
The nature of data set [11]: Solubility of compound in FaSSIF at pH 6.5. It counts as physicochemical.
The nature of data set [12]: Protein binding in mouse plasma. Type of data set: ADME, cell-free. As to conditions: read-out: PPB (converted).
Data set [13] is described as follows: Protein binding in human plasma. It counts as ADME, cell-free. As to conditions: read-out: PPB (converted).
Data set [14] is described as follows: Unbound clearance in C57BL mouse at 10 mg/kg, po or 2 mg/kg, iv. It counts as ADME, organism-based. As to conditions: in vivo.
Data set [15] in a line: Half life in C57BL mouse at 10 mg/kg, po or 2 mg/kg, iv. Type of data set: ADME, organism-based. As to conditions: in vivo.

A word on the IC50: it is the point on the concentration scale where inhibition reaches its midpoint. The term half-life denotes how long it takes for the measured level to halve. The term solubility denotes the dissolved amount per volume that the medium holds. Low values mean a poorly soluble substance, high ones a readily soluble substance. As usually defined, the Tmax is the time from dosing to the highest level. By Cmax is commonly meant the peak of the concentration-time curve. In general, AUC(0-inf) refers to the area under the concentration-time curve extrapolated to infinity. A higher AUC(0-inf) goes with more exposure.

`CCn1c(CO)nn(-c2cc3c(cc2F)C(=O)C(c2ccccc2C)CN3C(C)C)c1=O` (configuration not stated) displayed an IC50 in data set [1] of 0.47 nM.
With `CCn1c(CO)nn(-c2cc3c(cc2F)c(=O)c(-c2c(F)cccc2Cl)cn3C(C)C)c1=O`, the half-life in [2] and in [3] was over 3 h in each case. The molecule also returned a solubility in data set [4] of over 400 µM. In data set [1], the IC50 was found to be 29 nM.
In the case of `C=C(C)c1nn(-c2c(F)cccc2Cl)c(=O)c2cc(F)c(-n3nc(CO)n(CC)c3=O)cc12`, the half-life in data set [2] and in [3] was over 3 h each time. The molecule further gave a solubility in [4] of 259 µM (≈ 123 µg/mL). In addition, the IC50 in data set [1] was 0.39 nM.
Turning to `CCn1c(CO)nn(-c2cc3c(C(C)C)cn(-c4c(F)cccc4Cl)c(=O)c3cc2F)c1=O`, the half-life in data set [2] and in data set [3] was over 3 h each time. Also, the solubility in [4] is under 4 µM.
On to `CCn1c(CO)nn(-c2nc3c(C(C)C)nn(-c4ccccc4C)c(=O)c3cc2F)c1=O`, for which the half-life in data set [2] and in [3] was over 3 h throughout. In data set [4], this molecule gave a solubility of 133 µM (≈ 58.3 µg/mL). Moreover, half-maximal inhibition in data set [1] (IC50) required 3.3 nM.
With `CCn1c(CO)nn(-c2cc3c(C(C)C)cc(-c4ccccc4C)c(=O)n3cc2F)c1=O`, the half-life in data set [2] is 2.33 h; in data set [3], over 3 h; in [15], 4.03 h. For the same molecule, the Tmax in [5] turned out to be 0.67 h. Besides, in data set [6], the bioavailability is 102%. For the same molecule, the solubility at 24 h in data set [7] is 43 µg/mL (≈ 98.5 µM); in [11] it was 198 µg/mL (≈ 454 µM). The molecule further yielded a Vdss in [8] of 2.12 L/kg. In addition, in data set [9], the peak level (Cmax) was 3210 ng/mL. The molecule further showed a total exposure AUC(0-inf) in [10] of 21800 ng·h/mL. In addition, the fraction unbound in [12] was 0.032; in data set [13], 0.049. The molecule also showed a CL free in data set [14] of 245 mL/min/kg. The IC50 in data set [1] came out at 0.72 nM.
With `CCn1c(CO)nn(-c2cc3c([C@H](C)C(F)(F)F)nn(-c4ccccc4C)c(=O)c3cc2F)c1=O`, the half-life in data set [2] and in data set [3] was over 3 h throughout. For the same molecule, the solubility in [4] is under 4 µM. The same molecule came in with an IC50 in [1] of 1.6 nM.
Molecule `CCn1c(CO)nn(-c2cc3c(cc2F)C(=O)N(c2ccccc2C)C[C@@H]3C(C)C)c1=O` came in with an IC50 in data set [1] of 8.2 nM.
`CCn1c(CO)nn(-c2cc3c(cc2F)C(=O)N(c2c(F)cccc2Cl)CN3C(C)C)c1=O` returned an IC50 in data set [1] of 0.86 nM. Compared with the last molecule, the IC50 is about 9.5-fold lower.
As for `CCn1c(CO)nn(-c2cc3c(C(C)C)nn(-c4c(F)cccc4Cl)c(=O)c3cc2F)c1=O`, the values for the half-life in [2], in [3] and in data set [15] were over 3 h, over 3 h and 5.02 h, respectively. In data set [5], the Tmax is 1.67 h. The bioavailability in data set [6] turned out to be 103%. Also, the Vdss in data set [8] turned out to be 1.43 L/kg. This molecule registered a Cmax in data set [9] of 5730 ng/mL. The AUC(0-inf) in data set [10] worked out at 50400 ng·h/mL. Moreover, the fraction unbound in data set [12] is 0.025; in [13], 0.044. Further, the CL free in [14] was determined as 144 mL/min/kg. Also, the solubility in data set [4] was under 4 µM. In data set [1], this molecule displayed a half-inhibitory concentration (IC50) of 0.39 nM.
As to `CCn1c(CO)nn(-c2cc3c(cc2F)c(=O)c(-c2ccccc2C)cn3C(C)C)c1=O`, the half-life in [2] and in data set [3] was over 3 h throughout. For the same molecule, in data set [4], the solubility is 83 µM (≈ 36.2 µg/mL). This molecule also showed an IC50 in data set [1] of 9.3 nM.
As for `CCn1c(CO)nn(-c2cc3c([C@@H](C)C(F)(F)F)nn(-c4ccccc4C)c(=O)c3cc2F)c1=O`, the half-life is 2.98 h in data set [2] and over 3 h in [3]. This molecule also came in with a solubility in data set [4] of under 4 µM. Also, the IC50 in [1] is 1.4 nM.
In turn, `CCn1c(CO)nn(-c2cc3c(cc2F)C(=O)N(c2ccccc2C)C[C@H]3C(C)C)c1=O` returned an IC50 in data set [1] of 19 nM.
For the molecule `CCn1c(CO)nn(-c2cc3c(C(C)C)cn(-c4ccccc4C)c(=O)c3cc2F)c1=O`, the half-life is over 3 h in data set [2], over 3 h in data set [3] and 5.68 h in [15]. Further, the Tmax in [5] was determined as 1.67 h. The bioavailability in [6] was determined as 125%. Also, the solubility at 24 h in data set [7] was found to be 25 µg/mL (≈ 57.3 µM); in [11], 67 µg/mL (≈ 153 µM). This molecule yielded a Vdss in data set [8] of 1.64 L/kg. For the same molecule, in [9], the Cmax is 6170 ng/mL. Besides, in data set [10], the AUC(0-inf) stood at 57200 ng·h/mL. Besides, the fraction unbound in [12] was 0.088; in [13], 0.099. Further, the CL free in data set [14] was 41.4 mL/min/kg. This molecule also showed a solubility in [4] of 371 µM (≈ 162 µg/mL).
For `CCn1c(CO)nn(-c2cc3c(C(C)C)nn(-c4ccccc4C)c(=O)c3cc2F)c1=O`, the half-life in data set [2] was over 3 h; in [3] it was over 3 h; in [15] it was 4.55 h. Moreover, the Tmax in data set [5] amounted to 0.83 h. Besides, the bioavailability in [6] was determined as 111%. The solubility at 24 h in data set [7] was found to be 78 µg/mL (≈ 178 µM); in data set [11] it was 99 µg/mL (≈ 226 µM). This molecule also gave a Vdss in [8] of 1.94 L/kg. In data set [9], this molecule registered a Cmax of 4260 ng/mL. In data set [10], the AUC(0-inf) came to 35100 ng·h/mL. The values for the fraction unbound in data set [12] and in data set [13] were 0.134 and 0.122, respectively. Moreover, the CL free in data set [14] is 40.7 mL/min/kg. This molecule also showed a solubility in [4] of over 400 µM. The molecule further showed an IC50 in data set [1] of 0.72 nM.
